Data on five compounds can be found in article PMC8959960, “Inhibition of Aldose Reductase by Novel Phytocompounds: A Heuristic Approach to Treating Diabetic Retinopathy” (Evidence-based Complementary and Alternative Medicine : eCAM, 2022).

One data set has as its target T1, human lens ALR2 (Homo sapiens, UniProt P15121).
T1 construct: Crude ALR2 enzyme extract was prepared by homogenizing from 100 mg of diabetic and nondiabetic human lenses; from tissue; host or cells: human lens (Rotary Aravind International Eye Bank)
As to the kind of experiment: ALR2 inhibition in human lens samples (NADPH decrease at 340 nm). Format: biochemical. Particulars: crude ALR2 from diabetic human lens, DL-glyceraldehyde substrate, 37°C, pH 7.0; means ± SD, n = 3. The procedure:
Hayman and Kinoshita method of crude ALR2 enzyme preparation was followed. Five diabetic and nondiabetic human lenses, aged 58 to 65 years, were obtained from the Rotary Aravind International Eye Bank, Aravind Eye Hospital, Madurai. […] The nondiabetic human lens was used as the control. The lens homogenate was centrifuged at 10,000 rpm for 30 minutes, and the resulting crude ALR2 enzyme preparation was used for analysis.
The 300 μl reaction mixture consisted of 100 mM sodium phosphate buffer adjusted to pH 7.0, 0.2 mM Li2SO4, 5 mM 2-mercaptoethanol, 0.15 mM NADPH, and 100 μg crude enzyme preparation, and the substrate DL-glyceraldehyde was added to initiate the reaction. ALR2 activity was assayed spectrophotometrically by measuring the decrease in the absorption of NADPH at 340 nm per unit time at 37°C and pH 7.0.
The percentage inhibition of ALR2 was calculated using the following formula:(3) % inhibition=ΔAbsorbance of sample/min−ΔAbsorbance blank/min/ΔAbsorbance of control/min−ΔAbsorbance blank/min×100.

The target of the next data set is T2, ALR2 in ARPE-19 cells (Homo sapiens, UniProt P15121).
T2 construct: The cell lysate was collected for analysis; endogenous in cells; host or cells: ARPE-19
The data set is described as follows: Inhibition of ALR2 in ARPE-19 cells. Type of data set: cell-based. Particulars: normoglycemic (5 mM glucose) ARPE-19 cells, 24 hr, each compound at its human lens IC50 concentration. The procedure:
The cells were shifted to DMEM-low glucose with 10% FBS, 12 hr before the experiment. The cells were washed with PBS and incubated in FBS-free medium and 5 mM/25 mM (normoglycemic condition/hyperglycemic condition) glucose, for 24 hr, with or without the drug. Following the drug treatment, the cells were washed with ice cold PBS, trypsinized, and counted. Cells were resuspended in ALR assay buffer, homogenized for 30 seconds, and centrifuged at 10000 rpm for 30 minutes. The cell lysate was collected for analysis.
ALR2 inhibition protocol by Hayman and Kinoshita was followed.

A further data set has as its system ARPE-19 cells. As to the kind of experiment: MTT cell toxicity assay. To be noted: 24 hr treatment. Type of data set: cell-based, human. Here is the method:
The cell toxicity of the shortlisted ARIs was assessed using MTT assay kit (in vitro toxicological assay kit, Sigma, USA). ARPE-19 cells were grown to confluence in DMEM/F12 medium with 10% FBS, harvested by trypsinization, and plated at 1 × 10^4 cells per well in a 96-well plate. The medium was replaced with serum-free medium without FBS for 3 hr before the drug treatment. Following serum starvation, ARPE-19 cells were treated with different concentrations of the identified compounds. […] The cells were treated with the lead compounds for 24 hr to determine the cytotoxicity of the compounds. After incubation, the cells were treated with 20 μl of 5 mg/ml MTT and incubated for 3 hr at 37°C to determine the cell toxicity. The viable cells converted MTT into formazan crystals which were dissolved using solubilization solution (200 μl) and measured spectrophotometrically at 570 nm with subtraction of the reference wavelength, 650 nm, to eliminate the possibility of variations in the plate and the media present, using SpectraMax M3 multiplate reader (Molecular Devices, California, USA).

The test system of the next data set is ALR2. To be noted: high glucose condition; cited from earlier work.

Consider `COc1cc(O)c2c(=O)cc(-c3ccccc3)oc2c1OC` [7-O-Methylwogonin], for which 108 nM corresponded to half-maximal inhibition at human lens ALR2 (IC50). For the same compound, the “ALR2 inhibition (%)” value at ALR2 in ARPE-19 cells was 98%.
On to `O=C(OCC1=C[C@@H](O)[C@@H]2C=CO[C@@H](O[C@@H]3O[C@H](CO)[C@@H](O)[C@H](O)[C@H]3O)[C@H]12)c1ccc(O)cc1` [Agnuside], for which the “concentration below which no toxicity was shown” value with ARPE-19 cells is recorded as “below 5 μM”. Also, on human lens ALR2, the 50% inhibitory concentration (IC50) was 22.4 nM. Also, the “ALR2 inhibition (%)” value on ALR2 in ARPE-19 cells came out at 100%.
With `CC(/C=C1\SC(=S)N(CC(=O)O)C1=O)=C\c1ccccc1` [Epalrestat, reference compound], the ALR2 inhibition in the data set on ALR2 is listed as 65%. The “concentration below which no toxicity was shown” value with ARPE-19 cells is reported as “below 5 μM”. For the same compound, the “ALR2 inhibition (%)” value at ALR2 in ARPE-19 cells is given as 85%.
Turning to `COc1cc2oc(-c3ccc(O)cc3)c(O[C@@H]3O[C@H](CO)[C@H](O)[C@H](O)[C@H]3O)c(=O)c2c(O)c1OC` [Eupalitin-3-O-galactoside], the 50% inhibitory concentration (IC50) at human lens ALR2 came out at 27.3 nM. For the same compound, the “ALR2 inhibition (%)” value on ALR2 in ARPE-19 cells is 65%.
On human lens ALR2, `COc1cc(C(=O)O[C@H]2[C@@H]3C=CO[C@@H](O[C@@H]4O[C@H](CO)[C@@H](O)[C@H](O)[C@H]4O)[C@@H]3[C@@]3(CO)O[C@@H]23)ccc1O` [Picroside II] registered an IC50 of 130 nM. The “ALR2 inhibition (%)” value at ALR2 in ARPE-19 cells is 71%.
